Tested on: 817829-284-R-J1-PDC complex spheroid viability
Assay: Anticancer human tumor 817829-284-R-J1-PDC patient-derived colon adenocarcinoma cell line growth inhibition [POLQ]
Conditions: for IC50: curve of first compound; for viability, T/C: stronger effect = lower value
Method: Multicellular complex tumor spheroid response to Polymerase (POL) inhibitors (novobiocin, ART-558, RP6685) in combination with a variety of drugs and investigational agents in selected tumor cell lines
The POL inhibitors (novobiocin, ART-558, and RP6685) were evaluated both individually and in combination with standard of care and investigational anticancer small molecules within a complex spheroid model of solid tumors. . Complex spheroids include a stromal component modeled by human endothelial cells (HUVEC) and fibroblasts modeled by human mesenchymal stem cells (MSCs). The concentration ranges selected for each drug and investigational agent were based upon clinically achievable concentrations if the clinical Cmax of the agent was known.
Compounds. The drugs and investigational agents: novobiocin (NSC847541), ART-558 (NSC835418), RP-6685 (NSC848927), peposertib (NSC802822), ceralasertib (NSC780249), elimusertib (NSC800525), camonsertib (NSC841442), AZD-1390 (NSC803789), olaparib (NSC753686), talazoparib (NSC767125), rucaparib (NSC756644), sotorasib (NSC818433), MRTX-1133 (NSC836407), SN-38 (NSC673596), topotecan (NSC609699), epotoside (NSC141540), doxorubicin (NSC123127), gemcitabine (NSC613327), 5-fluorouracil (NSC19893), paclitaxel (NSC125973), vemurafenib (NSC761431), MSA-2 (NSC828583), SN-011 (NSC837082), adavosertib (NSC754352), prexasertib (NSC758257), carboplatin (NSC241240) and oxaliplatin (NSC266046), were obtained from the National Cancer Institute (NCI) Developmental Therapeutics Program Chemical Repository (21). The FDA-approved anticancer drug set is available from the Developmental Therapeutics Program at https://dtp.cancer.gov/organization/dscb/obtaining/. […] The stock solutions were prepared in dimethyl sulfoxide (DMSO, Sigma-Aldrich, St. Louis, MO, cat. D2650), except for the platinum compounds which were prepared in saline (Quality Biological, Gaithersburg, MD, cat. 114-055-101), at 800-fold the tested concentration and stored at -70 degrees C prior to their use. All drugs and investigational agents were tested over a range starting from a high concentration at or near the clinical Cmax and decreasing in half-log increments. If the clinical Cmax for an agent had not been determined, the highest concentration tested was 10 microM, except for SN-38, which was tested at a high concentration of 1 microM.
Cell Culture. All cells were maintained in an incubator at 37 degrees C and 5% CO2 with 95% humidity. The PDC lines were cultured according to standard operating procedures established by the NCI PDMR (https://pdmr.cancer.gov). Table 3 of the manuscript, lists the cell lines along with the number of the three cell types plated to form the mct-spheroids and media for tumor cell growth. After thawing, all PDC lines, except 997537-175-T-J1-PDC and 415267-285-R-J2-PDC, were cultured in Matrigel-coated flasks prepared with a working solution of 1X Ham's F-12 nutrient mix, without supplementation (Thermo Fisher Scientific, cat. 11765054), 100 U/mL penicillin-streptomycin (Thermo Fisher Scientific, cat. 15140122), and 2.5% Matrigel (Corning Inc., Corning, NY, cat. 354248) for the first three passages. The two PDC lines 997537-175-T-J1-PDC and 415267-285-R-J2-PDC were cultured on uncoated flasks. The 857933-349-R-J2-PDC line was cultured in 6C/Colon 1B media containing advanced DMEM/F-12 (Thermo Fisher Scientific, cat. 12634028), 10 mM HEPES (Thermo Fisher Scientific, cat. 15630080), 1X GlutaMAX supplement (Thermo Fisher Scientific, cat. 35050061), 0.1 mg/mL primocin (InvivoGen, San Diego, CA, cat. ant-pm-2), 10% defined fetal bovine serum, heat inactivated (HyClone Laboratories Inc., Logan, UT, cat. SH30070.03HI), 50% L-WRN conditioned media (ATCC, cat. CRL-3276), 1.25 mM N-Acetyl-L-cysteine (Sigma-Aldrich, cat. A9165), 10 mM nicotinamide (Sigma-Aldrich, cat. N0636), 1X B-27 supplement (Thermo Fisher Scientific, cat. 17504044), 1X N-2 supplement (Thermo Fisher Scientific, cat. […]

[1] = second compound 0.0316 µM, first compound 0.0316 µM
[2] = second compound 0.0316 µM, first compound 0.1 µM
[3] = second compound 0.0316 µM, first compound 0.316 µM
[4] = second compound 0.0316 µM, first compound 1 µM
[5] = second compound 0.0316 µM, first compound 3.16 µM
[6] = second compound 0.0316 µM, first compound 10 µM
[7] = second compound 0.1 µM, first compound 0.0316 µM
[8] = second compound 0.1 µM, first compound 0.1 µM
[9] = second compound 0.1 µM, first compound 0.316 µM
[10] = second compound 0.1 µM, first compound 1 µM
[11] = second compound 0.1 µM, first compound 3.16 µM
[12] = second compound 0.1 µM, first compound 10 µM
[13] = second compound 0.316 µM, first compound 0.0316 µM
[14] = second compound 0.316 µM, first compound 0.1 µM
[15] = second compound 0.316 µM, first compound 0.316 µM
[16] = second compound 0.316 µM, first compound 1 µM
[17] = second compound 0.316 µM, first compound 3.16 µM
[18] = second compound 0.316 µM, first compound 10 µM
[19] = second compound 1 µM, first compound 0.0316 µM
[20] = second compound 1 µM, first compound 0.1 µM
[21] = second compound 1 µM, first compound 0.316 µM
[22] = second compound 1 µM, first compound 1 µM
[23] = second compound 1 µM, first compound 3.16 µM
[24] = second compound 1 µM, first compound 10 µM
[25] = second compound 3.16 µM, first compound 0.0316 µM
[26] = second compound 3.16 µM, first compound 0.1 µM
[27] = second compound 3.16 µM, first compound 0.316 µM
[28] = second compound 3.16 µM, first compound 1 µM
[29] = second compound 3.16 µM, first compound 3.16 µM
[30] = second compound 3.16 µM, first compound 10 µM
[31] = second compound 10 µM, first compound 0.0316 µM
[32] = second compound 10 µM, first compound 0.1 µM
[33] = second compound 10 µM, first compound 0.316 µM
[34] = second compound 10 µM, first compound 1 µM
[35] = second compound 10 µM, first compound 3.16 µM
[36] = second compound 10 µM, first compound 10 µM
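Also: spheroids exposed to compounds for 7 days.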
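For viability, T/C in this document: 100% = DMSO vehicle-treated spheroids.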

## COc1ccc([C@@H](O)c2cc(-c3ncnc4cc(N5CCOCC5)ccc34)c(F)cc2Cl)nn1 + COC1C(OC(N)=O)C(O)C(Oc2ccc3c(O)c(NC(=O)c4ccc(O)c(CC=C(C)C)c4)c(=O)oc3c2C)OC1(C)C
Second compound 0.0316 µM
  IC50: 678 nM
Second compound 0.1 µM
  IC50: 1040 nM
Second compound 0.316 µM
  IC50: 797 nM
Second compound 1 µM
  IC50: 1010 nM
Second compound 3.16 µM
  IC50: 497 nM
Second compound 10 µM
  IC50: 579 nM
[1]
  viability, T/C: 111%
[2]
  viability, T/C: 61.9%
[3]
  viability, T/C: 76.9%
[4]
  viability, T/C: 44.5%
[5]
  viability, T/C: 22.8%
[6]
  viability, T/C: 11.9%
[7]
  viability, T/C: 117%
[8]
  viability, T/C: 79.6%
[9]
  viability, T/C: 68.8%
[10]
  viability, T/C: 55%
[11]
  viability, T/C: 26.6%
[12]
  viability, T/C: 18.5%
[13]
  viability, T/C: 98.7%
[14]
  viability, T/C: 86%
[15]
  viability, T/C: 58.4%
[16]
  viability, T/C: 53.9%
[17]
  viability, T/C: 25.5%
[18]
  viability, T/C: 18.9%
[19]
  viability, T/C: 102%
[20]
  viability, T/C: 88.8%
[21]
  viability, T/C: 89.4%
[22]
  viability, T/C: 49.2%
[23]
  viability, T/C: 25.9%
[24]
  viability, T/C: 18.9%
[25]
  viability, T/C: 97.1%
[26]
  viability, T/C: 86%
[27]
  viability, T/C: 59.6%
[28]
  viability, T/C: 34.2%
[29]
  viability, T/C: 22.3%
[30]
  viability, T/C: 16%
[31]
  viability, T/C: 135%
[32]
  viability, T/C: 62.2%
[33]
  viability, T/C: 80%
[34]
  viability, T/C: 43.9%
[35]
  viability, T/C: 27.4%
[36]
  viability, T/C: 16.2%

## CC(=O)O[C@H]1C(=O)[C@@]2(C)[C@H]([C@H](OC(=O)c3ccccc3)[C@]3(O)C[C@H](OC(=O)[C@H](O)[C@@H](NC(=O)c4ccccc4)c4ccccc4)C(C)=C1C3(C)C)[C@]1(OC(C)=O)CO[C@@H]1C[C@@H]2O + COC1C(OC(N)=O)C(O)C(Oc2ccc3c(O)c(NC(=O)c4ccc(O)c(CC=C(C)C)c4)c(=O)oc3c2C)OC1(C)C
Second compound 0.0316 µM
  IC50: < 9.49 nM
Second compound 0.1 µM
  IC50: < 9.49 nM
Second compound 0.316 µM
  IC50: < 9.49 nM
Second compound 1 µM
  IC50: < 9.49 nM
Second compound 3.16 µM
  IC50: < 9.49 nM
Second compound 10 µM
  IC50: < 9.49 nM
Second compound 0.0316 µM, first compound 0.00949 µM
  viability, T/C: 6.3%
Second compound 0.0316 µM, first compound 0.03 µM
  viability, T/C: 5.64%
Second compound 0.0316 µM, first compound 0.0949 µM
  viability, T/C: 4.85%
Second compound 0.0316 µM, first compound 0.3 µM
  viability, T/C: 4.95%
Second compound 0.0316 µM, first compound 0.949 µM
  viability, T/C: 4.91%
Second compound 0.0316 µM, first compound 3 µM
  viability, T/C: 5.21%
Second compound 0.1 µM, first compound 0.00949 µM
  viability, T/C: 5.46%
Second compound 0.1 µM, first compound 0.03 µM
  viability, T/C: 4.45%
Second compound 0.1 µM, first compound 0.0949 µM
  viability, T/C: 4.97%
Second compound 0.1 µM, first compound 0.3 µM
  viability, T/C: 5.08%
Second compound 0.1 µM, first compound 0.949 µM
  viability, T/C: 4.85%
Second compound 0.1 µM, first compound 3 µM
  viability, T/C: 5.2%
Second compound 0.316 µM, first compound 0.00949 µM
  viability, T/C: 5.79%
Second compound 0.316 µM, first compound 0.03 µM
  viability, T/C: 5.7%
Second compound 0.316 µM, first compound 0.0949 µM
  viability, T/C: 5.32%
Second compound 0.316 µM, first compound 0.3 µM
  viability, T/C: 4.7%
Second compound 0.316 µM, first compound 0.949 µM
  viability, T/C: 4.56%
Second compound 0.316 µM, first compound 3 µM
  viability, T/C: 4.8%
Second compound 1 µM, first compound 0.00949 µM
  viability, T/C: 5.74%
Second compound 1 µM, first compound 0.03 µM
  viability, T/C: 5.47%
Second compound 1 µM, first compound 0.0949 µM
  viability, T/C: 5.82%
Second compound 1 µM, first compound 0.3 µM
  viability, T/C: 4.18%
Second compound 1 µM, first compound 0.949 µM
  viability, T/C: 4.64%
Second compound 1 µM, first compound 3 µM
  viability, T/C: 5.33%
Second compound 3.16 µM, first compound 0.00949 µM
  viability, T/C: 5.62%
Second compound 3.16 µM, first compound 0.03 µM
  viability, T/C: 5.09%
Second compound 3.16 µM, first compound 0.0949 µM
  viability, T/C: 4.79%
Second compound 3.16 µM, first compound 0.3 µM
  viability, T/C: 4.48%
Second compound 3.16 µM, first compound 0.949 µM
  viability, T/C: 4.83%
Second compound 3.16 µM, first compound 3 µM
  viability, T/C: 4.67%
Second compound 10 µM, first compound 0.00949 µM
  viability, T/C: 5.28%
Second compound 10 µM, first compound 0.03 µM
  viability, T/C: 5.23%
Second compound 10 µM, first compound 0.0949 µM
  viability, T/C: 5.99%
Second compound 10 µM, first compound 0.3 µM
  viability, T/C: 5.05%
Second compound 10 µM, first compound 0.949 µM
  viability, T/C: 4.95%
Second compound 10 µM, first compound 3 µM
  viability, T/C: 5.41%

## C#Cc1c(F)ccc2cc(O)cc(-c3ncc4c(N5CC6CCC(C5)N6)nc(OCC56CCCN5CC(F)C6)nc4c3F)c12 (stereo unspecified) + COC1C(OC(N)=O)C(O)C(Oc2ccc3c(O)c(NC(=O)c4ccc(O)c(CC=C(C)C)c4)c(=O)oc3c2C)OC1(C)C
Second compound 0.0316 µM
  IC50: > 10000 nM
Second compound 0.1 µM
  IC50: > 10000 nM
Second compound 0.316 µM
  IC50: > 10000 nM
Second compound 1 µM
  IC50: 7860 nM
Second compound 3.16 µM
  IC50: > 10000 nM
Second compound 10 µM
  IC50: 8110 nM
[1]
  viability, T/C: 88.1%
[2]
  viability, T/C: 92.5%
[3]
  viability, T/C: 135%
[4]
  viability, T/C: 119%
[5]
  viability, T/C: 102%
[6]
  viability, T/C: 93.4%
[7]
  viability, T/C: 95.6%
[8]
  viability, T/C: 107%
[9]
  viability, T/C: 102%
[10]
  viability, T/C: 114%
[11]
  viability, T/C: 89.2%
[12]
  viability, T/C: 106%
[13]
  viability, T/C: 88.1%
[14]
  viability, T/C: 105%
[15]
  viability, T/C: 87.5%
[16]
  viability, T/C: 116%
[17]
  viability, T/C: 127%
[18]
  viability, T/C: 66.5%
[19]
  viability, T/C: 110%
[20]
  viability, T/C: 140%
[21]
  viability, T/C: 109%
[22]
  viability, T/C: 126%
[23]
  viability, T/C: 101%
[24]
  viability, T/C: 36.5%
[25]
  viability, T/C: 117%
[26]
  viability, T/C: 121%
[27]
  viability, T/C: 99.1%
[28]
  viability, T/C: 113%
[29]
  viability, T/C: 113%
[30]
  viability, T/C: 56.7%
[31]
  viability, T/C: 87.3%
[32]
  viability, T/C: 113%
[33]
  viability, T/C: 144%
[34]
  viability, T/C: 101%
[35]
  viability, T/C: 132%
[36]
  viability, T/C: 35.4%

Source: PubChem BioAssay AID1963839 (Molecular Pharmacology Branch, DTP, NCI, 2024)
